EC50 data for 14 molecules are collected here from patent US20240058315A1, “Pyridine and Pyrazine derivative for the Treatment of CF, COPD, and Bronchiectasis” (NOVARTIS AG, priority 2019, published 2024).

ΔF508-CFTR, sequence (P13569 other isoform, or with tags, fused parts or gaps del F508-F508): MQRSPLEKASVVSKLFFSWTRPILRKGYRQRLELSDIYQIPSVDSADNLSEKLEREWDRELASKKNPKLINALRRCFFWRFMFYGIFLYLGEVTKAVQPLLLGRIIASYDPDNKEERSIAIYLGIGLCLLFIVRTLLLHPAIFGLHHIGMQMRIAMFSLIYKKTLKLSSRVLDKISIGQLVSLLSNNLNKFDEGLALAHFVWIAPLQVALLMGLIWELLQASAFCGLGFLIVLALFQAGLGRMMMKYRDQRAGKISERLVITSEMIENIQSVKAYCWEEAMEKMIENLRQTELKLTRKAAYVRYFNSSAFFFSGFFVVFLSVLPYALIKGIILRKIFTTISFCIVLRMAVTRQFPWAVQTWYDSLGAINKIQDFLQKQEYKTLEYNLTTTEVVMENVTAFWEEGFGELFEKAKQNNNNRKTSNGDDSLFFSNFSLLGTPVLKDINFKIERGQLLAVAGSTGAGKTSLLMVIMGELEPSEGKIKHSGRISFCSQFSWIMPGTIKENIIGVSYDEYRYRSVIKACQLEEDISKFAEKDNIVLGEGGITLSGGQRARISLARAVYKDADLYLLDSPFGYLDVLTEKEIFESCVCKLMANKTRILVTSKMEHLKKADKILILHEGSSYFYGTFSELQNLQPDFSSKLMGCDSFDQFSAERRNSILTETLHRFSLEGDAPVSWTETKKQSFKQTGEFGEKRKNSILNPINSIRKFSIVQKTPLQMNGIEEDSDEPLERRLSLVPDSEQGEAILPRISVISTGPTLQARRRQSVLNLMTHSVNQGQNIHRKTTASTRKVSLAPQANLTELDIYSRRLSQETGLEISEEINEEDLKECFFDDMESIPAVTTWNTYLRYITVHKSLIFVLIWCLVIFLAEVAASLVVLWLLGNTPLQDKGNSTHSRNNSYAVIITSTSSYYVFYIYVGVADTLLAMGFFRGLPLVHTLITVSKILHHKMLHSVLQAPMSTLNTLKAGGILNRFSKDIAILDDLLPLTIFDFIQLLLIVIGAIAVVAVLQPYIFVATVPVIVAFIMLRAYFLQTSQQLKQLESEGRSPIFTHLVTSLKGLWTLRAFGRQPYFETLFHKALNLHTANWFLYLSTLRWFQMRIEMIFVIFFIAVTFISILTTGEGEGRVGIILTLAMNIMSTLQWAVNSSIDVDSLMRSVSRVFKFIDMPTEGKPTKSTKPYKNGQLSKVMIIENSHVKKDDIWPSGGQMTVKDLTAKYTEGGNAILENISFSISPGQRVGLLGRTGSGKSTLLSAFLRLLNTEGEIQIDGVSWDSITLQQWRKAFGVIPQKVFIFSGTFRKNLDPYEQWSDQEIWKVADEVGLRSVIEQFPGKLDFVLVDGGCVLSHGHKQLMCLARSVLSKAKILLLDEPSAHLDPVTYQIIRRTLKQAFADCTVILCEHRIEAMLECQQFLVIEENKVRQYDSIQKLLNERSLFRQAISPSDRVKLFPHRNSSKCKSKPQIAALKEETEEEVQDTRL

For this assay, the target named is ΔF508-CFTR (Homo sapiens (Human), UniProt P13569, DEL508-508). Kind of assay: CFTR potentiator assays (membrane potential, IonWorks Quattro, Ussing chamber ion transport). Type of assay: cell-based. Conditions: CFTR EC50 in 'the data measurements described above'; which of the potentiator assays is not stated. The text has this:
CFTR activity can be quantified by measuring the transmembrane potential. The means for measuring the transmembrane potential in a biological system can employ a number of methods including electrophysiological and optical fluorescence-based membrane potential assays.
The optical membrane potential assay utilises a negatively charged potentiometric dye, such as the FLIPR membrane potential dye (FMP) (see Baxter D F, Kirk M, Garcia A F, Raimondi A, Holmqvist M H, Flint K K, Bojanic D, Distefano P S, Curtis R, Xie Y. ‘A novel membrane potential-sensitive fluorescent dye improves cell-based assays for ion channels.’ J Biomol Screen. 2002 February; 7(1):79-85) which when extracellular is bound to a quenching agent.
Upon cellular depolarisation the negatively charged dye redistributes to the intracellular compartment, unbinding from the membrane impermeant quench agent, yielding an increase in fluorescence. This change in fluorescence is proportional to the change in transmembrane potential which can result from the activity of CFTR. The changes in fluorescence can be monitored in real time by an appropriately equipped fluorescence detector such as the FLIPR (fluorometric imaging plate reader) in 96 or 384-well microtitre plates.
Chinese hamster ovary (CHO) cells stably expressing the AF508-CFTR channel were used for membrane potential experiments. Cells were maintained at 37° C. in 5% v/v CO2 at 100% humidity in Modified Eagles medium (MEM) supplemented with 8% v/v foetal calf serum, 100 μg/ml methotrexate and 100 U/ml penicillin/streptomycin. Cells were grown in 225 cm^2 tissue culture flasks. For membrane potential assays cells were seeded into 96 well plates at 40,000 cells per well, allowed to adhere and then maintained at 26° C. for 48 h to facilitate channel insertion.
The membrane potential screening assay utilised a low chloride ion containing extracellular solution (˜5 mM) combined with a double addition protocol. The first addition was of buffer with or without test compound followed 5 minutes later by an addition of forskolin (1-20 μM)—this protocol favours maximum chloride efflux in response to ΔF508-CFTR activation. The ΔF508-CFTR mediated chloride ion efflux leads to a membrane depolarisation which is optically monitored by the FMP dye.
Low chloride extracellular (mM): 120 Na-gluconate, 1.2 CaCl2), 3.3 KH2PO4, 0.8 K2HPO4, 1.2 MgCl2, 10.0 D-glucose, 20.0 HEPES, pH 7.4 with NaOH FMP dye: made up as per manufacturers' instructions in low chloride extracellular solution detailed above, at 10× final concentration, and stored as 1 mL aliquots at −20° C.
CFTR activity can also be quantified electrophysiologically using the whole-cell configuration of the patch clamp technique (Hamill et al Pflugers Archive 1981). This assay directly measures the currents associated with chloride flow through CFTR channels whilst either maintaining or adjusting the transmembrane voltage. This assay can use either single glass micropipettes or parallel planar arrays to measure CFTR activity from native or recombinant cell systems. Currents measured using parallel planar arrays can be quantified using an appropriately equipped instrument such as the IonWorks Quattro (Molecular Devices) or the Qpatch (Sophion). The Quattro system can measure CFTR currents from either a single cell per recording well (HT configuration) or alternatively from a population of 64 cells per well (Population Patch Clamp PPC) (Finkel A, Wittel A, Yang N, Handran S, Hughes J, Costantin J. ‘Population patch clamp improves data consistency and success rates in the measurement of ionic currents.’ J Biomol Screen. 2006 August; 11(5):488-96).
Chinese hamster ovary (CHO) cells stably expressing the ΔF508-CFTR channel were used for IonWorks Quattro experiments. […]
As for `COc1nc(C(=O)NCC(C)(O)C(F)(F)F)c(N)cc1C(F)(F)F` (racemic) [Example 4, 3-Amino-6-methoxy-5-trifluoromethyl-pyridine-2-carboxylic acid (3,3,3-trifluoro-2-hydroxy-2-methyl-propyl)-amide], the EC50 came out at 76 nM.
For `COc1nc(C(=O)NC[C@@](C)(O)C(F)(F)F)c(N)cc1C(F)(F)F` (single isomer, unassigned) [Example 6], the EC50 is 426 nM.
The value for `CC(O)(CNC(=O)c1nc(-c2ccc(Cl)cc2Cl)c(C(F)(F)F)cc1N)C(F)(F)F` (single isomer, unassigned) [Example 9, 3-Amino-6-(2,4-dichloro-phenyl)-5-trifluoromethyl-pyridine-2-carboxylic acid (3,3,3-trifluoro-2-hydroxy-2-methyl-propyl)-amide] was 90 nM.
On to `CC(O)(CNC(=O)c1nc(-c2ccc(Cl)cc2Cl)c(C(F)(F)F)cc1N)C(F)(F)F` (single isomer, unassigned) [Example 10, 3-Amino-6-(2,4-dichloro-phenyl)-5-trifluoromethyl-pyridine-2-carboxylic acid (3,3,3-trifluoro-2-hydroxy-2-methyl-propyl)-amide], for which the concentration for a half-maximal effect (EC50) is 112 nM.
Consider `Cc1ccc(-c2nc(C(=O)NCC(C)(O)C(F)(F)F)c(N)cc2C(F)(F)F)cn1` (single isomer, unassigned) [Example 15, 5-Amino-6′-methyl-3-trifluoromethyl-[2,3′]bipyridinyl-6-carboxylic acid (3,3,3-trifluoro-2-hydroxy-2-methyl-propyl)-amide], for which the EC50 was found to be 51 nM.
The value for `C[C@@](O)(CNC(=O)c1nc(Br)c(C(F)(F)F)cc1N)C(F)(F)F` [Example 2, 3-Amino-6-bromo-5-trifluoromethyl-pyridine-2-carboxylic acid ((R)-3,3,3-trifluoro-2-hydroxy-2-methyl-propyl)-amide] was 15 nM; that for `C[C@](O)(CNC(=O)c1nc(Br)c(C(F)(F)F)cc1N)C(F)(F)F` [Example 3, 3-Amino-6-bromo-5-trifluoromethyl-pyridine-2-carboxylic acid ((S)-3,3,3-trifluoro-2-hydroxy-2-methyl-propyl)-amide] was 55 nM; that for `C[C@](O)(CNC(=O)c1nc(-c2ccc(F)cc2)c(C(F)(F)F)cc1N)C(F)(F)F` [Example 7, 3-Amino-6-(4-fluoro-phenyl)-5-trifluoromethyl-pyridine-2-carboxylic acid ((S)-3,3,3-trifluoro-2-hydroxy-2-methyl-propyl)-amide] was 40 nM.
In the case of `C[C@@](O)(CNC(=O)c1nc(-c2ccc(F)cc2)c(C(F)(F)F)cc1N)C(F)(F)F` [Example 8, 3-Amino-6-(4-fluoro-phenyl)-5-trifluoromethyl-pyridine-2-carboxylic acid ((R)-3,3,3-trifluoro-2-hydroxy-2-methyl-propyl)-amide], the EC50 was 60 nM.
Regarding `CC(C)(O)CNC(=O)c1nc(-c2ccc(F)cc2)c(C(F)(F)F)cc1N` [Example 11, 3-Amino-6-(4-fluoro-phenyl)-5-trifluoromethyl-pyridine-2-carboxylic acid (2-hydroxy-2-methyl-propyl)-amide], the EC50 was 37 nM.
On to `COc1nc(C(=O)NCC(O)C(F)(F)F)c(N)cc1C(F)(F)F` (centres unmarked) [Example 12, 3-Amino-6-methoxy-5-trifluoromethyl-pyridine-2-carboxylic acid (3,3,3-trifluoro-2-hydroxy-propyl)-amide], for which the EC50 was 35 nM.
Consider `Cc1ccc(-c2nc(C(=O)NCC(O)(C(F)(F)F)C(F)(F)F)c(N)cc2C(F)(F)F)cn1` [Example 14, 5-Amino-6′-methyl-3-trifluoromethyl-[2,3′]bipyridinyl-6-carboxylic acid (3,3,3-trifluoro-2-hydroxy-2-trifluoromethyl-propyl)-amide], for which the EC50 is 115 nM.
For the molecule `C[C@](O)(CNC(=O)c1nc(C(F)(F)F)c(C(F)(F)F)cc1N)C(F)(F)F` [Example 16, 3-Amino-5,6-bis-trifluoromethyl-pyridine-2-carboxylic acid ((S)-3,3,3-trifluoro-2-hydroxy-2-methyl-propyl)-amide], the EC50 is 8 nM.
On to `C[C@@](O)(CNC(=O)c1nc(C(F)(F)F)c(C(F)(F)F)cc1N)C(F)(F)F` [Example 17, 3-Amino-5,6-bis-trifluoromethyl-pyridine-2-carboxylic acid ((R)-3,3,3-trifluoro-2-hydroxy-2-methyl-propyl)-amide], for which the EC50 came out at 10 nM.
